# Patent publication US8445689B2, “Pesticides” (Dow AgroSciences, LLC., priority 2008, dated 2013)
# Like-named read-outs stand apart in the source and are kept apart here.
# What was measured:
# [1] = test system: Green Peach Aphid (Myzus persicae); experiment: Insecticidal test for green peach aphid in foliar spray assay on cabbage; assay type: in vivo; conditions: 72 h, read-out: Rating against green peach aphid on cabbage (foliar spray)
# Experimental: Compounds 1-67 were tested against green peach aphid using procedures described hereinafter.
# Insecticidal Test for Green Peach Aphid (Myzus persicae) in Foliar Spray Assay
# Cabbage seedlings grown in 3-inch pots, with 2-3 small (3-5 cm) true leaves, were used as test substrate. The seedlings were infested with 20-50 green peach aphids (wingless adult and nymph) 1-2 d prior to chemical application. Four seedlings were used for each treatment. Compounds (2 mg) were dissolved in 2 mL of acetone-methanol (1:1) solvent, forming stock solutions of 1000 ppm. The stock solutions were diluted 5× with 0.025% Tween 20 in H2O to obtain a solution at 200 ppm. A hand-held Devilbiss aspirator sprayer was used for spraying a solution to both sides of cabbage leaves until runoff. Reference plants (solvent check) were sprayed with the diluent only. Treated plants were held in a holding room for 3 d at approximately 23° C. and 40% RH prior to grading. Evaluation was conducted by counting the number of live aphids per plant under a microscope. Insecticidal activity was measured by using Abbott's correction formula: Corrected % Control=100*(X−Y)/X • where X=No. of live aphids on solvent check plants • Y=No. of live aphids on treated plants
# [2] = 200 ppm foliar spray on cabbage seedlings, graded after 3 d, corrected % control (Abbott)
SMILES,melting point,pest or weed control at 200 ppm ([1]; foliar),"pest or weed control at 200 ppm [1, 2]"
"CC(c1ccc(C(F)(F)F)cc1)S(C)(=O)=NC(=S)NC(=O)OCC1c2ccccc2-c2ccccc21 (stereo not drawn) [Compound 34, 9H-Fluoren-9-ylmethyl[(methyl(oxido){1-[4-(trifluoromethyl)phenyl]-ethyl}-λ^4-sulfanylidene)amino]carbonothioylcarbamate]",86 to 93 °C,< 80%,
"CC(c1ccc(C(F)(F)F)cc1)S(C)(=O)=NC(N)=S (stereo not drawn) [Compound 35, N-(methyl(oxido){1-[4-(trifluoromethyl)phenyl]ethyl}-λ^4-sulfanylidene)thiourea]",166 to 168 °C,,< 80%
"NC(=S)N=S1(=O)CCCC1c1ccc(Cl)nc1 (stereo not drawn) [Compound 36, N-[2-(6-chloropyridin-3-yl)-1-oxidotetrahydro-1H-1λ^4-thien-1-ylidene]thiourea]",168 to 172 °C,,80 to 100%
"COC(=O)CCC(=O)NC(=S)N=S(C)(=O)C(C)c1ccc(C(F)(F)F)nc1 (stereo not drawn) [Compound 37, methyl 4-({[(methyl(oxido){1-[6-(trifluoromethyl)pyridin-3-yl]ethyl}-λ^4-sulfanylidene)amino]carbonothioyl}amino)-4-oxobutanoate]",131 to 133 °C,,80 to 100%

# More lines, main results first:
melting point,SMILES,pest or weed control at 200 ppm ([1]; foliar),"pest or weed control at 200 ppm [1, 2]"
157 to 159 °C,"CC(c1ccc(C(F)(F)F)nc1)S(C)(=O)=N/C(N)=N/O (stereo not drawn) [Compound 38, N″-hydroxy-N-(methyl(oxido){1-[6-(trifluoromethyl)pyridin-3-yl]ethyl}-λ^4-sulfanylidene)guanidine]",,80 to 100%
156 to 158 °C,"CS(=O)(Cc1ccc(Cl)nc1)=N/C(N)=N/O (stereo not drawn) [Compound 39, N-[[(6-chloropyridin-3-yl)methyl](methyl)oxido-λ^4-sulfanylidene]-N″-hydroxyguanidine]",,80 to 100%
